{"source": "patent US8987200B2", "about": "“Polycationic calcium modulator peptides for the treatment of hyperparathyroidism and hypercalcemic disorders” (KAI Pharmaceuticals, Inc., priority 2006, dated 2015)", "key": {"[1]": {"conditions": "rat, plasma"}, "[2]": {"assay": "In vitro activity of free-thiol calcium modulating peptide compared with KAI-1455", "conditions": "tested in vitro, relative to KAI-1455"}, "[3]": {"tested_on": "anesthetized rats", "assay": "3 hour infusion study of KAI-1633 in anesthetized rats, with steady state plasma concentration by ELISA (Example 14)", "type": "in vivo, rat", "conditions": "9 mg/kg iv infusion for 3 hours", "text": "The study was designed to determine the contribution of the disulfide bond and/or cysteine residue on the calcium modulator peptide to the reductions in total calcium and plasma PTH.\nControl animals (n=4) were infused with saline."}}, "note": "No end group written: not given here."}
{"compound": "CC[C@H](C)[C@H](NC(=O)[C@@H]1CCCN1C(=O)[C@H](C)NC(=O)[C@H](CC(=O)O)NC(=O)[C@H](Cc1c[nH]cn1)NC(=O)[C@@H](N)CSSC[C@H](N)C(=O)N[C@@H](Cc1ccc(O)cc1)C(=O)NCC(=O)N[C@@H](CCCNC(=N)N)C(=O)N[C@@H](CCCCN)C(=O)N[C@@H](CCCCN)C(=O)N[C@@H](CCCNC(=N)N)C(=O)N[C@@H](CCCNC(=N)N)C(=O)N[C@@H](CCC(N)=O)C(=O)N[C@@H](CCCNC(=N)N)C(=O)N[C@@H](CCCNC(=N)N)C(=O)N[C@@H](CCCNC(=N)N)C(=O)O)C(=O)NCC(=O)N[C@@H](Cc1ccc(O)cc1)C(=O)N[C@@H](CC(=O)O)C(=O)O", "note": "[KP-9706]", "values": [{"measurement": "half-life", "setting": "[1]", "result": "~5", "unit": "min"}]}
{"compound": "CC(C)C[C@H](NC(=O)[C@H](CO)NC(=O)CNC(=O)[C@H](CC(C)C)NC(=O)[C@H](CCC(=O)O)NC(=O)[C@H](Cc1ccc(O)cc1)NC(=O)[C@H](CO)NC(=O)[C@H](CC(N)=O)NC(=O)[C@H](Cc1ccccc1)NC(=O)[C@H](CO)NC(=O)[C@@H](N)CSSC[C@H](N)C(=O)N[C@@H](Cc1ccc(O)cc1)C(=O)NCC(=O)N[C@@H](CCCNC(=N)N)C(=O)N[C@@H](CCCCN)C(=O)N[C@@H](CCCCN)C(=O)N[C@@H](CCCNC(=N)N)C(=O)N[C@@H](CCCNC(=N)N)C(=O)N[C@@H](CCC(N)=O)C(=O)N[C@@H](CCCNC(=N)N)C(=O)N[C@@H](CCCNC(=N)N)C(=O)N[C@@H](CCCNC(=N)N)C(=O)O)C(=O)O", "note": "[KP-9803]", "values": [{"measurement": "half-life", "setting": "[1]", "result": "~10", "unit": "min"}]}
{"compound": "Ac-CYGRKKRRQRRR-NH2 [SEQ ID NO:5, capped TAT-derived peptide having an N-terminal cysteine residue containing a free thiol]", "values": [{"measurement": "Activity in vitro", "setting": "[2]", "result": "comparable to KAI-1455"}]}
{"compound": "EAVSLKPTGGYGRKKRRQRRR-NH2 [KAI-1633]", "values": [{"measurement": "Plasma PTH levels", "setting": "[3]", "result": "did not show a reduction"}, {"measurement": "Total calcium", "setting": "[3]", "result": "did not show a reduction"}]}
